Data reported in patent US5871779A, “Treatment of arthropathies with vanadate compounds or analogues thereof” (Mount Sinai Hospital Corporation, priority 1996, dated 1999).
“Also recorded” adds a separate entry of the source.

Tests used:
collagenase [1] = test: collagenase mRNA expression in chondrocytes (Northern blot); format: cell-based, bovine; conditions: in the presence of IL 1; N-acetylcysteine 20 mM for 20 min
From the text: (§1) The cytokine interleukin 1 (IL 1) has been used to identify the intermediate second messengers which regulate the expression of fos and jun.
Although IL 1 stimulated superoxide production, it was not known whether IL 1 induced fos and jun expression was dependent on the production of superoxides. In order to elucidate this possibility, the effect of DPI on fos and jun mRNA levels induced by IL 1 was investigated. RNA from chondrocytes treated with IL 1 in the presence and absence of DPI were analyzed by Northern blot analysis using either fos or collagenase cDNA probes. […] Similar data has been obtained for IL 1 induced jun expression. Furthermore, inhibition of fos and jun expression by DPI was sufficient to suppress IL 1 induced and constitutive collagenase expression.
Cells were also incubated as described above with 20 mM N-acetylcysteine for 20 min. and then incubated with IL 1 for an additional 1 or 12 hours. The RNA was extracted and examined by Northern blot analysis using cDNA probes for c-fos and collagenase. N-acetylcysteine which is converted to GSH intracellularly was also found to reduce the levels of fos and collagenase expression in response to IL 1 (FIG. 5). Presumably the higher intracellular levels of GSH reduced H2 O2 and superoxide levels and suppressed the induction of fos and collagenase expression.

c-fos = test: TNFα and bFGF induced c-fos mRNA in chondrocytes (Northern blot); format: cell-based, bovine; conditions: 30 mM, 2 hours preincubation
Protocol: Chondrocyte cultures were stimulated with H2 O2 (100 μM) at different time points as indicated. […] Chondrocyte cultures were preincubated with NAC (30 mM) or Asc (100 μM) for 2 hours before the addition of bFGF (10 ng/ml) or TNFα (30 ng/ml) for 30 minutes. Both human recombinant TNFα and bFGF were dissolved in phosphate buffered saline with 0.1% bovine serum albumin. NAC and Asc were first dissolved in Ham's F12 medium containing 5% (v/v) fetal bovine serum, then neutralized with sodium hydroxide. Total RNA from bovine articular chondrocytes was isolated and the c-fos mRNA levels were determined by Northern blot analysis as described herein. The blots were subsequently stripped of DNA and re-probed with ^32 p-labelled rat β tubulin cDNA.
Chondrocyte cultures were pretreated with DPI (2 μM) for 30 minutes before the addition of TNFα (30 ng/ml) or bFGF (10 ng/ml) for 30 minutes. Measurements of c-fos and tubulin mRNA levels were as described in Example 11.

collagenase [2] = test: collagenase production by chondrocytes (ELISA); format: cell-based, bovine; conditions: summary statement
Protocol: The effect of orthovanadate and N-acetylcysteine on fos, jun and collagenase expression were examined. Bovine articular chondrocytes were isolated and plated as previously described (Kandel R. A. et al. Biochim. Biophys. Acta. 1053, 130-134, 1990). In order to determine the effect of orthovanadate on IL 1 and PMA (phorbol ester) induced responses, chondrocytes were incubated with orthovanadate (100 μM) for 2 hours before stimulation with IL 1 (10 ng/ml) or PMA ([…]). Collagenase production was determined by incubating chondrocytes for 24 hours with IL 1 or PMA and the cell conditioned medium was assayed for collagenase activity using an ELISA procedure as described previously (Kandel et al. supra). PLA2 activity was measured by incorporating ^3 H-arachidonic acid (^3 H-AA) into the cells and then incubating the cells with medium containing 1 mg/ml BSA, either alone or in the presence of IL 1 or PMA, for 10 min. as previously described (Conquer, J. A. […], Biochim. Biophys. Acta. 1134, 1-6). The amount of ^3 H-AA liberated into the supernatant was determined. To measure PGE2 production, chondrocytes were incubated for 6 hours in Ham's F12 medium, either alone or with IL 1 or PMA. The supernatant was analyzed by RIA using an antibody specific for PGE2 (Dr. S. A. Jones, Mount Sinai Hospital, Toronto, Canada). In order to examine the expression of c-fos and c-jun, chondrocytes were incubated for 1 hour in the presence of IL-1, PMA or AA (3 μM). Chondrocytes were washed in PBS and the total RNA extracted as previously described (Cruz. et al, 1991, Biochem. J. 277, 327-330). RNA samples were run on formaldehyde agarose gels and transferred to nylon membrane for northern analysis using cDNA probes for c-fos and c-jun.

fos = fos / c-fos mRNA expression in chondrocytes (Northern blot); format: cell-based, bovine; conditions: in the presence of IL 1; N-acetylcysteine 20 mM for 20 min
Protocol: as §1
In order to elucidate this possibility, the effect of DPI on fos and jun mRNA levels induced by IL 1 was investigated. RNA from chondrocytes treated with IL 1 in the presence and absence of DPI were analyzed by Northern blot analysis using either fos or collagenase cDNA probes.
Since superoxides are rapidly converted to hydrogen peroxide in the cell by superoxide dismutase, whether hydrogen peroxide could mimic the effect of IL 1 in the induction of fos expression was investigated. RNA was extracted from chondrocytes (Kandel et al. supra) treated with H2 O2 for 30, 60 and 90 minutes and examined by Northern blot analysis using a fos cDNA probe.
Bovine articular chondrocytes were isolated and plated as previously described (Kandel R. A. et al. Biochim. Biophys. Acta. 1053, 130-134, 1990). […] The amount of ^3 H-AA liberated into the supernatant was determined. To measure PGE2 production, chondrocytes were incubated for 6 hours in Ham's F12 medium, either alone or with IL 1 or PMA. […] In order to examine the expression of c-fos and c-jun, chondrocytes were incubated for 1 hour in the presence of IL-1, PMA or AA (3 μM). Chondrocytes were washed in PBS and the total RNA extracted as previously described (Cruz. et al, 1991, Biochem. J. 277, 327-330). RNA samples were run on formaldehyde agarose gels and transferred to nylon membrane for northern analysis using cDNA probes for c-fos and c-jun.
The RNA was extracted and examined by Northern blot analysis using cDNA probes for c-fos and collagenase.

[3] = tested on: collagen induced arthritis; test: collagen induced arthritis, clinical arthritis score; format: in vivo, rats; conditions: NAC 100 mg/kg/day s.c.; listed as NAC
Protocol: Syngeneic 8 week old female Louvain (LOU) rats were fed with standard lab chow and housed in the vivarium at the University of California, Los Angeles. […] E. et al., J. Exp. Med., 146: 857-868, 1977). […] Rats with definite arthritis on Day 10 post immunization were randomized into two groups. Control rats (n=8) received only NAC at a dose of 100 mg/kg/day s.c. NAC was prepared as a 3% aqueous solution. […] Clinical arthritis severity of each limb was scored daily based on an objective integer scale of 0-4 (Trentham, D. E. et al., J. Exp. Med., 146: 857-868, 1977). A score of 0 indicated an unaffected limb, while a score of 4 represented fulminant erythema and edema involving distal digits. The arthritic index of a rat is defined as the sum of its four limb scores. Since CIA typically involves only the hind limbs, an arthritic index of 6 to 8 is considered severe arthritis.

tumor growth = tumor growth in vivo, orthovanadate and N-acetylcysteine (Example 7); design: species or system mice; conditions: combination with orthovanadate
Protocol: Since N-acetylcysteine is converted to glutathione in cells, higher levels of glutathione may not only reduce orthovanadate induced toxicity but may also reduce tumor formation.
Twenty mice were injected subcutaneously with 2×10^5 cells on Day 1. At day 4, the mice were divided into four groups of five mice. Group one (control) received subcutaneous injections of 50 μl of water. Group two received daily intraperitoneal injections of 50 μl of 250 mM N-acetylcysteine. Group three received daily subcutaneous injections of 50 μl of 10 mg/ml of orthovanadate. Group four received daily intraperitoneal injections of 50 μl of […] N-acetylcysteine and 20 minutes later received 50 μl of subcutaneous injection of 50 μl of 10 mg/ml of orthovanadate. On day 10 the treatment was stopped. The animals were sacrificed on Day 13 and analyzed for tumor growth.

CC(=O)N[C@@H](CS)C(=O)O [N-acetylcysteine]
IL 1 induction of collagenase (collagenase [1]): reduce | inhibition of TNFα and bFGF induced c-fos mRNA levels (c-fos): inhibit | production of metalloproteases, such as collagenase (collagenase [2]): inhibit | IL 1 induction of fos (fos): reduce | arthritis development / clinical severity, NAC alone [3]: developed severe arthritis; also recorded: no appreciable effect | toxic effects observed with orthovanadate alone (tumor growth): reduce the slight toxic effects
